Laboratory results: patent publication US20120165319A1, “INHIBITORS OF INTERLEUKIN-1 BETA CONVERTING ENZYME” (VERTEX PHARMACEUTICALS INCORPORATED, priority 1995, published 2012)
Like-named read-outs stand apart in the source and are kept apart here.

Key:
[1] = system: IL-1β, human peripheral blood mononuclear cells (PBMC); assay: PBMC cell assay: IL-1β assay with human PBMC or enriched adherent mononuclear cells, LPS-stimulated; type: cell-based; details: Homo sapiens, PBMC
Method in brief: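 Mature IL-1β is measured by ELISA in supernatants after 16–18 hr at 37 °C, 5% CO2, with LPS (5 ng/ml final) and test compound (0.1% DMSO final). Cells are human PBMC (6×10^6 cells/ml) or plate-adherent mononuclear cells (2.5−3.0×10^5 per well), and the 5–6 compound concentrations span the ICE Ki.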

[2] = system: IL-1β, human whole blood; assay: Whole blood assay for IL-1β production; type: cell-based; details: read-out: Whole human blood IC50
Method in brief: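 IL-1β was quantified by ELISA in plasma diluted 1:200. The plasma came from EDTA-anticoagulated human whole blood incubated at 30 °C for 16-18 h with LPS (final 5.0 ng/ml) plus a saline serial dilution of compound. Controls were no-LPS, no-inhibitor and highest-vehicle.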

[3] = molecular target: T1, ICE (Homo sapiens, UniProt P29466); assay: Enzyme assay with UV-visible substrate (visible ICE assay, Succinyl-Tyr-Val-Ala-Asp-pNitroanilide); type: biochemical
T1 sequence (P29466 120-297 limits assumed): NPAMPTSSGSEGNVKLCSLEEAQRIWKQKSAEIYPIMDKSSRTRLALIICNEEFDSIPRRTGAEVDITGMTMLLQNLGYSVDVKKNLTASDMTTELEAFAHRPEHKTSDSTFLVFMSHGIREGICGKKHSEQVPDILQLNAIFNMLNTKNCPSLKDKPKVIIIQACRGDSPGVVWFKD
T1 sequence (P29466 317-404 limits assumed): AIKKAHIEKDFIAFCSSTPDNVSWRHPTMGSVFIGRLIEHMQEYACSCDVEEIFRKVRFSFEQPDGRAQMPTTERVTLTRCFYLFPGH
Method in brief: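 Human ICE was preincubated with inhibitor in DMSO and buffer for 15 min at room temperature, then succinyl-Tyr-Val-Ala-Asp-pNA was added. pNA release was followed at 405-603 nm for 20 min at 37° C. Ki and inhibition mode came from fitting rates to standard kinetic equations.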

[4] = * = values obtained upon reassay
[5] = Homo sapiens, * = values obtained upon reassay

Row | SMILES | IC50 ([2]; Homo sapiens, Table 17) [µM] | Ki ([3]; Table 17) [µM] | IC50 [2, 4] [µM] | IC50 [2, 5] [µM] | Ki ([3]; Table 5) [µM] | IC50 ([1]; Table 17) [µM] | IC50 [1, 4] [µM]
1 | Cc1cc2c(cc1C(=O)N[C@H]1CCC(=O)N3CCC[C@@H](C(=O)N[C@H](C=O)CC(=O)O)N3C1=O)OCO2 [Compound 473] | – | – | 0.45 | 0.4 | 0.001 | – | 1
2 | CS(=O)(=O)Nc1ccc(C(=O)N[C@H]2CCC(=O)N3CCC[C@@H](C(=O)N[C@H](C=O)CC(=O)O)N3C2=O)cc1 [Compound 447] | – | – | – | 1.5 | 0.0058 | – | 2.5
3 | O=C[C@H](CC(=O)O)NC(=O)CN1C(=O)[C@@H](NC(=O)c2ccccc2)CN(C(=O)CCc2ccccc2)c2ccccc21 [Compound 605a, (3S)-3-[(3S)-2-oxo-3-benzoylamino-5-(3-phenylpropionyl)-2,3,4,5-tetrahydro-1H-1,5-benzodiazepin-1-acetylamino-]4-oxo-butyric acid] | – | – | – | > 20 | 0.09 | – | 2.6
4 | O=C[C@H](CC(=O)O)NC(=O)[C@@H]1CCCN2C(=O)CC[C@H](NC(=O)c3cc4ccccc4s3)C(=O)N12 [Compound 453] | – | – | 1.6 | 1.9 | 0.00065 | – | 1.3
5 | COCC(=O)N1C[C@H](NCc2ccc3ccccc3c2)C(=O)N(CC(=O)N[C@H](C=O)CC(=O)O)c2ccccc21 [Compound 640, (3S)-3-[(3S)-2-Oxo-3-(2-naphthylmethylene)amino-5-methoxyacetyl-2,3,4,5-tetrahydro-1H-1,5-benzodiazepine-1-acetylamino]-4-oxo-butyric acid] | 3.9 | 0.155 | – | – | – | 2.25 | –
6 | COc1ccc(C(=O)N[C@H]2CCC(=O)N3CCC[C@@H](C(=O)N[C@H](C=O)CC(=O)O)N3C2=O)cc1Cl [Compound 497] | – | – | 0.7 | 0.35 | 0.0035 | – | 0.74
7 | CN(C)c1ccc(C(=O)N[C@H]2CCC(=O)N3CCC[C@@H](C(=O)N[C@H](C=O)CC(=O)O)N3C2=O)c2ccccc12 [Compound 441] | – | – | – | 4.5 | 0.001 | – | 2.5
8 | Nc1c(Cl)cc(C(=O)N[C@H]2CCC(=O)N3CCC[C@@H](C(=O)N[C@H](C=O)CC(=O)O)N3C2=O)cc1Cl [Compound 482] | – | – | 0.26 | 0.38 | < 0.0002 | – | 0.34

Second part, led by results:

Row | IC50 ([2]; Homo sapiens, Table 17) [µM] | Ki ([3]; Table 17) [µM] | IC50 [2, 4] [µM] | IC50 [2, 5] [µM] | Ki ([3]; Table 5) [µM] | SMILES | IC50 ([1]; Table 17) [µM] | IC50 [1, 4] [µM]
9 | 3.2 | 0.005 | – | – | – | COc1ccccc1C(=O)C(=O)N[C@H]1CN(C(C)=O)c2ccccc2N(CC(=O)N[C@H](C=O)CC(=O)O)C1=O [Compound 705] | 2.3 | –
10 | 9 | 0.055 | – | – | – | COc1c(Cl)cc(C(=O)NN2CCC(=O)N3CCC[C@@H](C(=O)N[C@H](C=O)CC(=O)O)N3C2=O)cc1Cl [Compound 1125] | 2.3 | –
11 | 2.8 | 0.0052 | – | – | – | CC(=O)Nc1ccc(C(=O)N[C@H]2CN(C(=O)CO)c3ccccc3N(CC(=O)N[C@H](C=O)CC(=O)O)C2=O)cc1Cl [Compound 914] | 2.6 | –
12 | 1.4 | 0.0115 | – | – | – | O=C[C@H](CC(=O)O)NC(=O)CN1C(=O)[C@@H](NC(=O)c2ccc(O)cc2)CN(C(=O)CO)c2ccccc21 [Compound 691b, (3S)-3-[(3S)-2-Oxo-3-(4-hydroxybenzoyl)amino-5-hydroxyacetyl-2,3,4,5-tetrahydro-1H-1,5-benzodiazepine-1-acetylamino]-4-oxo-butyric acid] | 1.9 | –
13 | 2.6 | 0.022 | – | – | – | O=C[C@H](CC(=O)O)NC(=O)[C@@H]1CCCN2C(=O)CCN(NC(=O)C(=O)c3c[nH]c4ccccc34)C(=O)N12 [Compound 1108] | 1.4 | –
14 | 1.3 | 0.035 | – | – | – | Cc1cc(C)c(C(=O)C(=O)NN2CCC(=O)N3CCC[C@@H](C(=O)N[C@H](C=O)CC(=O)O)N3C2=O)c(C)c1 [Compound 1117] | 1.7 | –
15 | 14 | 0.01 | – | – | – | CC(=O)N1C[C@H](NC(=O)C(=O)c2c(C)cc(C)cc2C)C(=O)N(CC(=O)N[C@H](C=O)CC(=O)O)c2ccccc21 [Compound 709] | 2.1 | –
16 | 2.8 | 0.015 | – | – | – | COc1c(C)cc(C(=O)N[C@H]2CN(C(C)=O)c3ccccc3N(CC(=O)N[C@H](C=O)CC(=O)O)C2=O)cc1C [Compound 684, (3S)-3-[(3S)-2-Oxo-3-(3,5-dimethyl-4-methoxybenzoyl)amino-5-acetyl-2,3,4,5-tetrahydro-1H-1,5-benzodiazepine-1-acetylamino]-4-oxo-butyric acid] | 5 | –
